This experiment addresses T1, recombinant full length LRRK2 over-expressed in SH-SY5Y cells (Homo sapiens, UniProt Q5S007).
T1 construct: A BacMam virus expressing full length recombinant LRRK2 was purchased from Invitrogen; host or cells: SH-SY5Y human neuroblastoma cells transduced with BacMam LRRK2 virus
The experiment can be described thus: Recombinant cellular LRRK2 AlphaScreen assay (LRRK2 Ser935 phosphorylation). The format is cell-based. The conditions noted are these: SH-SY5Y cells with BacMam LRRK2, 60 minutes compound incubation, read-out: recombinant cellcular LRRK2 alphaScreen assay (pIC50) (converted). The method, then:
Recombinant Cellular LRRK2 AlphaScreen Assay
A BacMam virus expressing full length recombinant LRRK2 was purchased from Invitrogen and amplified by inoculation of SF-9 cells at MOI 0.3 for 4-5 days in Sf-900 III SFM medium supplemented with 3% fetal bovine serum. Infected cell cultures were then centrifuged at 2000 g for 20 minutes, viral supernatant titer determined by anti-gp64 plaque assay and stored at 4° C.
Affinity-purified anti-phospho LRRK2 Ser935 sheep polyclonal antibody (Dzamko et al., 2010, Biochem. J. 430: 405-413) was biotinylated by standard methods (PerkinElmer). Anti-LRRK2 rabbit polyclonal antibody was purchased from Novus Biologicals. AlphaScreen Protein A IgG Kit (including acceptor and donor beads) was purchased from Perkin Elmer.
SH-SY5Y cells were grown in DMEM/F12 medium with 10% dialysed fetal bovine serum and harvested by treatment with 0.5% trypsin-EDTA for 5 minutes at […] followed by centrifugation at 1000 rpm for 4 minutes. The cell pellet was resuspended in Opti-MEM reduced serum media (Invitrogen) at 200,000 cells/ml and mixed with the BacMam LRRK2 virus at MOI=50. 50 μl cell solutions were then dispensed to each well of a 384-well plate and incubated at 37° C., 5% CO2 for 24 hours.
Serial dilutions of test compounds were prepared in Opti-MEM reduced serum media (Invitrogen) and 5.6 ul transferred from compound plate to cell assay plate to achieve a top final assay concentration of 10 uM. DMSO was used in certain wells as controls. Cells were incubated at 37° C., 5% CO2 for 60 minutes. The medium was then removed and cells lysed by addition of 20 ul cell lysis buffer (Cell Signaling Technology) and incubation at 4° C. for 20 minutes. 10 ul of antibody/acceptor bead mix [(1/1000 biotinylated-pS935 LRRK2 antibody, 1/1000 total-LRRK2 antibody, 1/100 Acceptor beads in AlphaScreen detection buffer (25 mM Hepes (pH 7.4), 0.5% Triton X-100, 1 mg/ml Dextran 500 and 0.1% BSA)] was then added to each well and plates incubated for 2 hours at ambient temperature in the dark. 10 μl of donor beads solution (1/33.3 donor beads in AlphaScreen detection buffer) was then added to each well. Following incubation for a further 2 hours at ambient temperature in the dark, plates were read on an EnVision™ plate reader at emission 520-620 nm with excitation 680 nm. Dose response curve data was based on sigmoidal dose-response model.
For orientation: Bead proximity is the source of the signal in Alpha formats.
T1 sequence (Q5S007 whole entry): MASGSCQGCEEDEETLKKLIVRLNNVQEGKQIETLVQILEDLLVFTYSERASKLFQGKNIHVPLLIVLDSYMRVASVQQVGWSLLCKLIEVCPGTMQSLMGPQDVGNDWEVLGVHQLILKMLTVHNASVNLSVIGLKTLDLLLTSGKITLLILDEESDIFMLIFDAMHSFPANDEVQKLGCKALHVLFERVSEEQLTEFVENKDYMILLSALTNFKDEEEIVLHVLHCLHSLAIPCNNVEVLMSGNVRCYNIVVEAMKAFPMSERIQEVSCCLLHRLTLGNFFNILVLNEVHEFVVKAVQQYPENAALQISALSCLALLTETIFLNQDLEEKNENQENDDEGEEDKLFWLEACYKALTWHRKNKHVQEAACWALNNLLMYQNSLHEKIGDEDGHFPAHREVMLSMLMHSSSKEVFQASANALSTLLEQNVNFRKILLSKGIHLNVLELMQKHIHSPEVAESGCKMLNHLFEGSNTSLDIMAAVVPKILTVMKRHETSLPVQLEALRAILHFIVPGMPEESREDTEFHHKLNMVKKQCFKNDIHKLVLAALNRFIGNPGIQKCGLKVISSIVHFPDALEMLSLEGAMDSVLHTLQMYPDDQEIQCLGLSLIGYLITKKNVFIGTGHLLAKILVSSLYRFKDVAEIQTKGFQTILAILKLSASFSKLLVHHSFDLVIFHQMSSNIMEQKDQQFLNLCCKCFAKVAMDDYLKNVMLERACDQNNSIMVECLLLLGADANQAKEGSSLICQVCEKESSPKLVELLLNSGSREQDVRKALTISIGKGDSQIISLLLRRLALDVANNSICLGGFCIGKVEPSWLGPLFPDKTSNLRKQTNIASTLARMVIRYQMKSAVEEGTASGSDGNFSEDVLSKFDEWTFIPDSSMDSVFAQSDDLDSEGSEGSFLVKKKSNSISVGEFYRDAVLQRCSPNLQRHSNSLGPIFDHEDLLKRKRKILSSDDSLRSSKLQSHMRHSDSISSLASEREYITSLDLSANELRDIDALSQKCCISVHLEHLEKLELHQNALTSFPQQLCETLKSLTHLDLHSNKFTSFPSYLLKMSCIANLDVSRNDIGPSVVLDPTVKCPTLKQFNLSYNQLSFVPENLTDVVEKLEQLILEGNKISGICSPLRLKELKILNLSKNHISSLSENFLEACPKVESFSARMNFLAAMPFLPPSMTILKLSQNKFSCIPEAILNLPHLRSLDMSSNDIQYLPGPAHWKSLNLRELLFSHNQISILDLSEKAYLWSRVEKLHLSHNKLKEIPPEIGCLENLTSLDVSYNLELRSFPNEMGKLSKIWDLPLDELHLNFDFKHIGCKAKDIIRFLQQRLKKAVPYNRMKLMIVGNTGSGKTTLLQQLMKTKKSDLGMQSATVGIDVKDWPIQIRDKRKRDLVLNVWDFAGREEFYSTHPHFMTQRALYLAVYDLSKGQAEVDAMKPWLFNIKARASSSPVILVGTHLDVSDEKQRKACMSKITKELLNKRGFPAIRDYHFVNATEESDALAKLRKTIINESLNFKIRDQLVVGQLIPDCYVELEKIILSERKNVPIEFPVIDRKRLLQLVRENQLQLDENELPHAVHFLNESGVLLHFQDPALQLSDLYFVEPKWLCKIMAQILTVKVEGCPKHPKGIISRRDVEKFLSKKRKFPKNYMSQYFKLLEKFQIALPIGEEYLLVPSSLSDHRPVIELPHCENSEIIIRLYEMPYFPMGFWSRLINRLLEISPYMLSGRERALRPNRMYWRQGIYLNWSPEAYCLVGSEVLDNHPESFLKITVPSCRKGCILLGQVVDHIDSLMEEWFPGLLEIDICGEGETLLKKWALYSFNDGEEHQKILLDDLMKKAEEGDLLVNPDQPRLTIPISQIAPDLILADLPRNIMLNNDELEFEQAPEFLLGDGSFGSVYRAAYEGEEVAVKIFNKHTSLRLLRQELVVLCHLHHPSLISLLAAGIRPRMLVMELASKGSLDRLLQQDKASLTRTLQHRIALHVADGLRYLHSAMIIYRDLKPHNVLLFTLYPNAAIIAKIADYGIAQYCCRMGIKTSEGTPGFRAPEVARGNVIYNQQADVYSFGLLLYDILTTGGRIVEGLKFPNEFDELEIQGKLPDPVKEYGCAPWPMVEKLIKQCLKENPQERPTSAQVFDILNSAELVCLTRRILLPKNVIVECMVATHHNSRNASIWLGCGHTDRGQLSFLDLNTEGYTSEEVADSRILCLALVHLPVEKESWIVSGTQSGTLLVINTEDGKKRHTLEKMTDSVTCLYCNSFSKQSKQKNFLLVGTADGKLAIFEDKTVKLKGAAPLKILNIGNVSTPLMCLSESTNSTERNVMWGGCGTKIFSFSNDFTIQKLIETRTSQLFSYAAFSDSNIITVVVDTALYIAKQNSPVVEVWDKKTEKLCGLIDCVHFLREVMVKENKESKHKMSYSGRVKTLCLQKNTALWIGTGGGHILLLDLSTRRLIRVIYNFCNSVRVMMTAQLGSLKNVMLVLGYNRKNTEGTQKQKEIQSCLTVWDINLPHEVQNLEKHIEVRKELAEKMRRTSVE
For `CCOc1nc(Nc2ccc(C(=O)N3CCN(C)CC3)cc2)nc2[nH]ccc12` [Example E15, (4-((4-ethoxy-7H-pyrrolo-[2,3-d]-pyrimidin-2-yl)amino)phenyl)(4-methylpiperazin-1-yl)methanone], the IC50 is not above 100 nM.
Take `CCOc1nc(Nc2ccc(C(=O)N3CCOCC3)c(OC)c2)nc2[nH]ccc12` [Example E18, (4-((4-ethoxy-7H-pyrrolo-[2,3-d]-pyrimidin-2-yl)amino)-2-methoxyphenyl)(morpholino)methanone]: the IC50 is not above 100 nM.
For `CCOc1nc(Nc2ccc(C(=O)N3CCOC[C@H]3C)cc2OC)nc2[nH]ccc12` [Example E30, (R)-(4-((4-ethoxy-7H-pyrrolo[2,3-d]pyrimidin-2-yl)amino)-3-methoxyphenyl)(3-methylmorpholino)methanone], the IC50 was not above 100 nM.
As for `CCOc1nc(Nc2ccc(C(=O)N3CCOCC3)cc2OC)nc2[nH]cc(C)c12` [Example E32, (4-((4-ethoxy-5-methyl-7H-pyrrolo-[2,3-d]pyrimidin-2-yl)amino)-3-methoxyphenyl)(morpholino)methanone], the IC50 was not above 100 nM.
For `COc1cc(C(=O)N2CCN(C)CC2)ccc1Nc1nc(OCC2CC2)c2cc[nH]c2n1` [Example E33, (4-((4-(cyclopropylmethoxy)-7H-pyrrolo-[2,3-d]pyrimidin-2-yl)amino)-3-methoxyphenyl)(4-methylpiperazin-1-yl) methanone] the value was not above 100 nM; for `COc1cc(C(=O)N2CCOCC2)ccc1Nc1nc(OCC2CC2)c2cc[nH]c2n1` [Example E34, (4-((4-(cyclopropylmethoxy)-7H-pyrrolo-[2,3-d]pyrimidin-2-yl)amino)-3-methoxyphenyl)(morpholino)methanone], not above 100 nM; for `CCOc1nc(Nc2ccc(C(=O)N3CCOCC3)cc2OC)nc2[nH]cc(C#N)c12` [Example E59, 4-ethoxy-2-((2-methoxy-4-(morpholine-4-carbonyl)phenyl)amino)-7H-pyrrolo[2,3-d]pyrimidine-5-carbonitrile], not above 100 nM.

The values above are taken from patent publication US9815841B2, “Compounds” (GLAXOSMITHKLINE INTELLECTUAL PROPERTY DEVELOPMENT LIMITED, priority 2014, dated 2017).
